Measurements as given in patent US5175283A, “Azetidin-2-one derivatives as serine protease inhibitors” (Bristol-Myers Squibb Company, priority 1992, dated 1992).
Counter-ions that a name gives are not always drawn.

Legend:
Type in all cases: biochemical
human α-thrombin [1] = molecular target: T1, human α-thrombin (Homo sapiens, UniProt P00734); assay: Concentration required for doubling thrombin clotting time in human plasma; settings: human citrated plasma, 10 U/ml human thrombin; read-out: ED50, drug concentration required to double clotting time
T1 construct: purified human α-thrombin dissolved in thrombin assay buffer
Experimental: Procedure for Determining the Concentration Required for Doubling Thrombin Clotting Time--Clotting Time Assays The following reagents were used in these assays: Owren's Veronal Buffer: 125 mM NaCl, 28.4 mM sodium barbital, pH 7.35. Human citrated plasma obtained from human volunteers or citrated plasma obtained from IP-dosed animals (prepared as described below). 10 NIH Units/ml human α-thrombin in thrombin buffer for use with human plasma. […] The blood was centrifuged at […] (480×g) for 15 min at room temperature (using a Sorvall RT 6000B centrifuge). The plasma was removed, pooled, and aliquoted into small tubes which were stored frozen for later use. Clotting Time Measurement Clotting times were determined by pipetting 0.1 ml of Owren's buffer (pre-warmed 37° C.) and 0.1 ml of human or rat plasma into yellow sample cuvettes. For studies with human plasma 10 U/ml human thrombin (10 ml) was placed in the reservoir assembly station of the MLA 700. (Medical Laboratory Automation, Electra 700 Reservoir Assembly). For rat studies, the human thrombin concentration was 25 U/ml. The cuvettes were vortexed and then placed on the MLA 700 sample wheel. The coagulation timer (MLA 700) automatically dispenses 0.1 ml human thrombin into the sample in each cuvette. Detection of the fibrin clot was determined optically by the MLA 700. Studies were performed to determine the concentration of drug which caused a doubling of the clotting time in human plasma. From standard curves of thrombin activity added to the sample versus the clotting time, the concentration of drug which caused a doubling of the thrombin clotting time corresponded to inhibition of approximately 1/2 of the added thrombin clotting activity. Results are reported in Table 1 as ED50 values, i.e., the drug concentration required to double clotting time.

human α-thrombin [2] = molecular target: T1, human α-thrombin; assay: Enzyme assay for the inhibition of thrombin (s-2238 substrate); settings: for IC50: 3 min incubation of drug with enzyme, room temperature; for Thrombin k2 /ki (second order rate constant for inactivation of the enzyme): human α-thrombin, s-2238, pH 7.4, room temperature
Experimental: 1. Enzyme Assays for the Inhibition of Thrombin The following reagents were used in these assays: Thrombin assay buffer: 145 mM NaCl, 5 mM KCl, 30 mM N-2-hydroxyethyl piperazine-N'-2-ethanesulfonic acid, pH 7.4, 1 mg/ml polyethylene glycol (PEG-8000). 3 mM D-Phe-Pip-Arg-p-nitroanilide (s-2238) in H2 O. 3 U/ml purified human α-thrombin dissolved in thrombin assay buffer. Inhibitors to be tested were dissolved in H2 O, methanol, or DMSO just prior to use. Assay Procedure To each well in a 96-well microtiter plate, 270 μl of assay buffer was added. Human α-thrombin (10 μl of 3 U/ml) was added, then 10 μl of inhibitor were added and mixed. The samples were incubated at room temperature for a defined period of time (3 min for initial IC50 determinations). The enzymic reaction was started with 10 μl of 3 mM s-2238 substrate and continued at room temperature. The change in optical density was measured at 405 nm. A kinetic microplate reader (Molecular Devices Corporation Vmax) was used to measure the change in optical density over time. Results are reported in Table 1 as IC50 values, i.e., the drug concentration in mole/liter which caused 50% inhibition of the enzyme activity (after incubation of the drug with the enzyme for 3 min). Alternatively, results are also reported in Table 1 expressed as k2 /ki which is the second order rate constant in per mole per minute for inactivation time of the enzyme [Kitz, et al., J. Biol. Chem., 237, 3245 (1962)].

[3] = molecular target: T2, bovine pancreatic trypsin (Bos taurus, UniProt P00760); assay: Enzyme assay for the inhibition of trypsin (Z-Val-Gly-Arg-pNA substrate); settings: 3 min incubation of drug with enzyme, room temperature, pH 8.0; read-out: Trypsin IC50
T2 construct: purified bovine pancreatic trypsin dissolved in trypsin assay buffer
T2 sequence (P00760 24-246): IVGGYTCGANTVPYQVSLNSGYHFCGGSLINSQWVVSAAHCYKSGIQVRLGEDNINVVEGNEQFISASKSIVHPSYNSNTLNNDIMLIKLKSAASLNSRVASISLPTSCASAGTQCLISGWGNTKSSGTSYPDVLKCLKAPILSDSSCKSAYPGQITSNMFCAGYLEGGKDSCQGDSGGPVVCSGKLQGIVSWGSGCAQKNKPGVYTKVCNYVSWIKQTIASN
Experimental: 2. Enzyme Assays for the Inhibition of Trypsin
The following reagents were used in these assays:
Trypsin assay buffer: 2 mM CaCl2, 50 mM Tris/Cl pH 8.0.
3 mM Z-Val-Gly-Arg-pNA (Chromzyme TRy) dissolved in H2 O.
6 μg/ml of purified bovine pancreatic trypsin dissolved in trypsin assay buffer.
Inhibitors to be tested were dissolved in H2 O, methanol or DMSO just prior to use.
To each well in a 96-well microtiter plate, 270 μl of assay buffer was added. Bovine trypsin (10 μl of 6 μg/ml) was added. Inhibitor (10 μl ) was added, mixed, and then incubated at room temperature for 3 min. The enzymic reaction was started with 10 μl of 3 mM Z-Val-Gly-Arg-pNA substrate. The change in optical density was measured at 405 nm at room temperature. A kinetic microplate reader (Molecular Devices Corporation Vmax) was used to measure the change in optical density over time.
Results are reported in Table 1 as IC50 values, i.e., the drug concentration in mole/liter which caused 50% inhibition of the enzyme activity (after incubation of the drug with the enzyme for 3 min).

Compound | IC (2-fold clotting time) (human α-thrombin [1]) | IC50 (human α-thrombin [2]) | Thrombin k2 /ki (second order rate constant for inactivation of the enzyme) (human α-thrombin [2]) | IC50 [3]
CN(C)c1cccc2c(S(=O)(=O)N3C(=O)[C@@H](CCCNC(=N)N)[C@@H]3C(=O)N3CCCCC3)cccc12 (relative stereo) [XII, trans-4-(1-Piperidinocarbonyl)-3-guanidinooropyl-1-[(5-dimethylamino)-1-naphthalenesulfonyl]-2-azetidinone hydrochloride salt] | 30 µM | 10 nM | 2.8 × 10^6 m^-1 min^-1 | 14 nM
COC(=O)[C@H]1[C@H](CCCNC(=N)N)C(=O)N1C(=O)Nc1ccccc1 (relative stereo) [V, trans-4-Methoxycarbonyl-3-(3-quanidinopropyl)-1-phenylaminocarbonyl-2-azetidinone hydrochloride salt] | 30 µM | 1700 nM | 8.3 × 10^4 m^-1 min^-1 | 5 nM
CC(=O)N1C(=O)[C@@H](CCCNC(=N)N)[C@@H]1S(=O)(=O)c1ccccc1 (relative stereo) [VI, trans-4-Phenylsulfonyl-3-guanidinopropyl-1-acetyl-2-azetidine hydrochloride salt] | 15 µM | 3.2 nM | 3.0 × 10^6 m^-1 min^-1 | 750 nM
Cc1ccc(S(=O)(=O)N2C(=O)[C@@H](CCCNC(=N)N)[C@@H]2C(=O)N2CCCCC2)cc1 (relative stereo) [XIII, trans-4-(1-Piperidinocarbonyl)-3-guanidinooropyl-1-p-toluenesulfonyl-2-azetidinone hydrochloride salt] | 80 µM | 3 nM | 4.5 × 10^7 m^-1 min^-1 | 120 nM
COC(=O)[C@H]1[C@H](CCCNC(=N)N)C(=O)N1C(C)=O (relative stereo) [II, trans-4-Methoxycarbonyl-3-[3-quanidinopropyl)-1-acetyl-2-azetidinone hydrochloride salt] | 1.25 µM | 2 nM | 1.9 × 10^7 m^-1 min^-1 | 40 nM
CC(=O)N1C(=O)[C@@H](CCCNC(=N)N)[C@@H]1C(=O)O (relative stereo) [XIV, trans-4-Carboxy-3-quanidinopropyl-1-acetyl-2-azetidinone hydrochloride salt] | 12 µM | 390 nM |  | 12 nM
CC(=O)N1C(=O)[C@@H](CCCNC(=N)N)[C@@H]1C(=O)Nc1ccc(C)cc1 (relative stereo) [XVI, trans-4-(4-Methylbenzeneaminocarbonyl)-3-guanidinopropyl-1-acetyl-2-azetidinone hydrochloride salt] | 0.5 µM | 25 nM | 1.3 × 10^6 m^-1 min^-1 | 120 nM
CCS[C@H]1[C@H](CCCNC(=N)N)C(=O)N1C(C)=O (relative stereo) [VII, trans-4-Ethylthio-3-quanidinopropyl-1-acetyl-2-azetidinone hydrochloride salt] | 0.75 µM | 12.5 nM | 5.6 × 10^6 m^-1 min^-1 | 36 nM
COC(=O)[C@H]1[C@H](CCCNC(=N)N)C(=O)N1S(=O)(=O)c1ccc(C)cc1.Cl (relative stereo) [I, trans-4-Methoxycarbonyl-3-(3-guanidinopropyl)-1-p-toluenesulfonyl-2-azetidinone hydrochloride salt] | 65 µM | 2 to 9 nM | 1.2 × 10^8 m^-1 min^-1 | 8 nM
